Data reported in ChEMBL document CHEMBL3046844, “Synthesis of novel 4-thiazolidione derivatives as antibacterial agents against drug-resistant Staphylococcus epidermidis” (2013).
≈ marks a conversion by molar mass, not a printed value.

Tests used:
Format in all cases: functional
Escherichia coli = assay: Antibacterial activity against Escherichia coli ATCC 25922 assessed as growth inhibition after 12 hr by CLSI broth microdilution method; conditions: ATCC 25922, 12 h
[1] = system: Staphylococcus epidermidis; assay: Antibacterial activity against methicillin-resistant Staphylococcus epidermidis 8311 clinical isolate assessed as growth inhibition after 12 hr by CLSI broth microdilution method; conditions: Staphylococcus epidermidis, 8311, 12 h
Staphylococcus aureus [2] = assay: Antibacterial activity against methicillin-resistant Staphylococcus aureus 8282 clinical isolate assessed as growth inhibition after 12 hr by CLSI broth microdilution method; conditions: Staphylococcus aureus, 8282, 12 h
Staphylococcus aureus [3] = assay: Antibacterial activity against methicillin-resistant Staphylococcus aureus 8166 clinical isolate assessed as growth inhibition after 12 hr by CLSI broth microdilution method; conditions: Staphylococcus aureus, 8166, 12 h
[4] = system: Staphylococcus epidermidis; assay: Antibacterial activity against methicillin-resistant Staphylococcus epidermidis 8354 clinical isolate assessed as growth inhibition after 12 hr by CLSI broth microdilution method; conditions: Staphylococcus epidermidis, 8354, 12 h
[5] = system: Staphylococcus epidermidis; assay: Antibacterial activity against Staphylococcus epidermidis RP62A assessed as growth inhibition after 12 hr by CLSI broth microdilution method
Salmonella = assay: Antibacterial activity against Salmonella assessed as growth inhibition after 12 hr by CLSI broth microdilution method

SMILES | MIC (Escherichia coli) | MIC [1] | MIC (Staphylococcus aureus [2]) | MIC (Staphylococcus aureus [3]) | MIC [4] | MIC [5] | MIC (Salmonella)
O=C(O)COc1ccc(/C=C2/S/C(=N\c3ccccc3Cl)N(c3ccccc3Cl)C2=O)cc1 | > 200 µM | 3.13 µM (≈ 1.56 µg/mL) | 3.13 µM (≈ 1.56 µg/mL) | 12.5 µM (≈ 6.24 µg/mL) | 3.13 µM (≈ 1.56 µg/mL) | 3.13 µM (≈ 1.56 µg/mL) | > 200 µM
O=C(O)COc1ccc(/C=C2/S/C(=N\c3ccc(F)cc3)N(c3ccc(F)cc3)C2=O)cc1 | > 200 µM | – | – | – | – | 25 µM (≈ 11.7 µg/mL) | > 200 µM
O=C(O)COc1ccc(/C=C2/S/C(=N\c3ccc(Br)cc3)N(c3ccc(Br)cc3)C2=O)cc1 | > 200 µM | 3.13 µM (≈ 1.84 µg/mL) | 3.13 µM (≈ 1.84 µg/mL) | 6.25 µM (≈ 3.68 µg/mL) | 3.13 µM (≈ 1.84 µg/mL) | 3.13 µM (≈ 1.84 µg/mL) | > 200 µM
O=C(O)COc1ccc(/C=C2/S/C(=N\c3cccc(Cl)c3)N(c3cccc(Cl)c3)C2=O)cc1 | > 200 µM | 3.13 µM (≈ 1.56 µg/mL) | 3.13 µM (≈ 1.56 µg/mL) | 12.5 µM (≈ 6.24 µg/mL) | 3.13 µM (≈ 1.56 µg/mL) | 3.13 µM (≈ 1.56 µg/mL) | > 200 µM
O=C(O)COc1ccc(/C=C2/S/C(=N\c3ccc(Cl)cc3)N(c3ccc(Cl)cc3)C2=O)cc1 | > 200 µM | 1.57 µM (≈ 0.784 µg/mL) | 3.13 µM (≈ 1.56 µg/mL) | 6.25 µM (≈ 3.12 µg/mL) | 1.57 µM (≈ 0.784 µg/mL) | 1.57 µM (≈ 0.784 µg/mL) | > 200 µM
COc1cc(/C=C2/S/C(=N\c3ccc(Cl)cc3)N(c3ccc(Cl)cc3)C2=O)ccc1OCC(=O)O | > 200 µM | – | – | – | – | 6.25 µM (≈ 3.31 µg/mL) | > 200 µM
O=C(O)COc1cccc(/C=C2/S/C(=N\c3ccc(Cl)cc3)N(c3ccc(Cl)cc3)C2=O)c1 | > 200 µM | – | – | – | – | 25 µM (≈ 12.5 µg/mL) | > 200 µM
CCc1ccccc1/N=C1\S/C(=C/c2ccc(OCC(=O)O)c(OC)c2)C(=O)N1c1ccccc1CC | > 200 µM | – | – | – | – | 50 µM (≈ 25.8 µg/mL) | > 200 µM
O=C(O)c1ccc(/C=C2/S/C(=N\c3ccccc3)N(c3ccccc3)C2=O)cc1 | > 200 µM | – | – | – | – | 50 µM (≈ 20 µg/mL) | > 200 µM
O=C(O)c1ccc(/C=C2/S/C(=N\c3ccc(F)cc3)N(c3ccc(F)cc3)C2=O)cc1 | > 200 µM | – | – | – | – | 25 µM (≈ 10.9 µg/mL) | > 200 µM
O=C(O)c1ccc(/C=C2/S/C(=N\c3ccc(Br)cc3)N(c3ccc(Br)cc3)C2=O)cc1 | > 200 µM | – | – | – | – | 12.5 µM (≈ 6.98 µg/mL) | > 200 µM
O=C(O)c1ccc(/C=C2/S/C(=N\c3ccc(Cl)cc3)N(c3ccc(Cl)cc3)C2=O)cc1 | > 200 µM | 3.13 µM (≈ 1.47 µg/mL) | 3.13 µM (≈ 1.47 µg/mL) | 12.5 µM (≈ 5.87 µg/mL) | 3.13 µM (≈ 1.47 µg/mL) | 3.13 µM (≈ 1.47 µg/mL) | > 200 µM
O=C(O)c1ccc(COc2ccc(/C=C3/S/C(=N\c4ccc(Cl)cc4)N(c4ccc(Cl)cc4)C3=O)cc2)cc1 | > 200 µM | – | – | – | – | > 200 µM | > 200 µM
O=C(O)COc1ccc(/C=C2/S/C(=N\c3ccccc3)N(c3ccccc3)C2=O)cc1 | > 200 µM | – | – | – | – | 100 µM (≈ 43 µg/mL) | > 200 µM
CC1(C)S[C@@H]2[C@H](NC(=O)[C@H](N)c3ccccc3)C(=O)N2[C@H]1C(=O)O [AMPICILLIN] | > 200 µM | – | – | – | – | 11.5 µM (≈ 4.02 µg/mL) | > 200 µM
C[C@H]1COc2c(N3CCN(C)CC3)c(F)cc3c(=O)c(C(=O)O)cn1c23 [LEVOFLOXACIN] | – | 22.1 µM (≈ 7.99 µg/mL) | 22.1 µM (≈ 7.99 µg/mL) | 22.1 µM (≈ 7.99 µg/mL) | 22.1 µM (≈ 7.99 µg/mL) | – | –
COc1cccc(OC)c1C(=O)N[C@@H]1C(=O)N2[C@@H]1SC(C)(C)[C@@H]2C(=O)O [METHICILLIN] | > 200 µM | 65.7 µM (≈ 25 µg/mL) | 65.7 µM (≈ 25 µg/mL) | 65.7 µM (≈ 25 µg/mL) | 65.7 µM (≈ 25 µg/mL) | 5.26 µM (≈ 2 µg/mL) | > 200 µM
